Assay results reported in PubChem BioAssay AID1996.
≈ marks a conversion by molar mass, not a printed value.

settings: buffer; pH 7.4; 200.0 µM

| SMILES | solubility kinetic [µg/mL] |
| --- | --- |
| O=C(Nc1ccc(F)cc1F)c1ccc2ncsc2c1 | 27.4 (≈ 94.4 µM) |
| CCOc1cc(/C=N/NC(=O)C2CCCC2)ccc1O | > 41.5 |
| CC(C)N1C(=O)c2ccccc2N(Cc2ccccc2)S1(=O)=O | 5.7 (≈ 17.3 µM) |
| CCCCNc1c(N)n(CCC)c(=O)[nH]c1=O | > 36 |
| CCc1cc(SC#N)ccc1N | 20.7 (≈ 116 µM) |
| CC(=O)c1cccc(N=Cc2c(O)c3ccccc3oc2=O)c1 | 11.2 (≈ 36.4 µM) |
| COc1cccc(CNc2ccc3c(c2)nc(C)n3C)c1OC | 44.8 (≈ 144 µM) |
| O=C(NC(=S)Nc1ccc(Br)c(Cl)c1)C1CC1 | < 0.4 |
| COCCCN1CN=C(Nc2nc3ccccc3o2)NC1 | > 43.4 |
| CCOC(=O)C1=Nc2ccccc2/C1=C\c1c(O)n(C)c(=O)n(C)c1=O | 46.5 (≈ 131 µM) |
| O=C(c1cc2cc(F)ccc2[nH]1)N1CCC2(CC1)OCCO2 | 20.2 (≈ 66.4 µM) |
| Cc1nc2ccccc2c(=O)n1-c1ccncc1 | 29.1 (≈ 123 µM) |
| Cc1cccc(N2CC(C(=O)Nc3ccc(N4CCOCC4)cc3)CC2=O)c1C (stereo not given) | > 59 |
| CNC(=O)c1[nH]cnc1C(=O)Nc1ccc(F)cc1 | 1.7 (≈ 6.48 µM) |
| COc1ccc(Cl)cc1NC(=S)NCCc1ccc(F)cc1 | 13.7 (≈ 40.4 µM) |
| COc1ccc(C)cc1Nc1nc(C)nc2sc(C)cc12 | 2.3 (≈ 7.68 µM) |
| CC1CCCCN1C(=O)CSc1nc(-c2ccccc2)cn1N (stereo not given) | > 49.6 |
| Cc1cc(-c2nnc(CCC(=O)NCc3ccc(F)c(F)c3)o2)no1 | > 52.2 |
| Cn1ccnc1SCC(=O)N1CCc2ccccc21 | 38.9 (≈ 142 µM) |
| O=C1NC(Cc2c[nH]c3ccccc23)C(=O)N1Cc1ccccc1 (stereo not given) | > 47.9 |

| SMILES | solubility kinetic [µg/mL] |
| --- | --- |
| Cc1ccc[n+](CC(=O)Nc2cccc(Cl)c2)c1.[Cl-] | > 44.6 |
| Cn1c(NC2CCCCC2)c(N=O)c(=O)n(C)c1=O | > 39.9 |
| Cc1cc(C)cc(OCC(=O)OCc2cc([N+](=O)[O-])cc3c2OCOC3)c1 | 3.9 (≈ 10.4 µM) |
| Cc1ccc(SCC(=O)O/N=C(\N)c2cccnc2)cc1 | 40 (≈ 133 µM) |
| Cc1ccc(OCC(=O)Nc2ccc3c(c2)C(=O)NC3=O)c(C)c1 | 0.6 (≈ 1.85 µM) |
| Cc1ccc(NS(=O)(=O)c2ccc3[nH]c(=O)[nH]c3c2)cc1 | 5.4 (≈ 17.8 µM) |
| CC(C)CCC1(CCNC(=O)c2cccs2)CCOC(C)(C)C1 (stereo not given) | 22.4 (≈ 66.4 µM) |
| O=C(/C=C/c1ccccc1)Nc1sc2c(c1C(=O)O)CCC2 | > 47 |
| O=C(COC(=O)c1cccnc1Cl)c1ccc(F)cc1 | 42.7 (≈ 145 µM) |
| Cc1ccc(C(=O)OCC(=O)NC2CCCCC2)s1 | > 42.2 |
| COc1ccc(C(=O)Nc2cc3c4c(c2)CC(=O)N4CCC3)cc1 | > 48.4 |
| O=C(NNC(=S)NC(=O)c1ccc(F)cc1)c1ccncc1 | > 47.7 |
| O=C(CN1CCC(NC(=O)Nc2ccccc2)CC1)Nc1ccccc1F | 17.5 (≈ 47.2 µM) |
| O=C(COC(=O)c1cccnc1Cl)NC(=O)NC1CCCCC1 | > 51 |
| CC1CCN(S(=O)(=O)c2cccc3cccnc23)CC1 | 41.8 (≈ 144 µM) |
| O=C(COC(=O)CSc1ccc(Cl)cc1)Nc1ccc2[nH]c(=O)[nH]c2c1 | 13.5 (≈ 34.5 µM) |
| CC(C)(C)c1ccc(N2C(=O)CC(C/C=C/c3ccccc3)C2=O)cc1 (stereo not given) | < 0.7 |
| CCC1CCCCN1C(=O)CSc1nc(N)cc(N)n1 (stereo not given) | 43.1 (≈ 146 µM) |
| CC1CCN(CCc2nc3ccccc3[nH]2)CC1 | 33.7 (≈ 138 µM) |
| Cc1cc(Cl)ccc1OC(C)C(=O)OCC(=O)c1ccc[nH]1 (stereo not given) | 4 (≈ 12.4 µM) |

| SMILES | solubility kinetic [µg/mL] |
| --- | --- |
| COc1cc(C(CN)CC(=O)O)ccc1O.Cl (stereo not given) | > 39.3 |
| Cn1cccc/c1=N\c1cccc[n+]1C.[I-] | > 49.1 |
| Cc1cccc(C(=O)OCC(=O)NC2CC2)c1O | > 37.4 |
| NS(=O)(=O)c1ccc(CNC(=O)C(c2ccccc2)c2ccccc2)cc1 | 56.1 (≈ 147 µM) |
| COc1cccc(Nc2nc(-c3ccccc3O)nc3ccccc23)c1 | < 0.2 |
| O=C(Nc1ccc(CSc2ccccc2)cc1)c1ccco1 | < 0.7 |
| O=C(NCc1ccc(F)cc1)c1ccncc1 | 34.2 (≈ 149 µM) |
| CC(NC(=O)c1ccco1)c1nc(-c2ccccc2)no1 (stereo not given) | 31.7 (≈ 112 µM) |
| CCC(=O)c1cn(CC(=O)Nc2cc(C)ccc2C)c2ccccc12 | < 0.4 |
| COCc1c(C(=O)OCC(=O)Nc2ccc(OC(F)F)cc2)oc2ccccc12 | 13.4 (≈ 33.1 µM) |
| Cc1ccc(C)c(NS(=O)(=O)c2ccc3oc(=O)ccc3c2)c1 | 1.4 (≈ 4.25 µM) |
| O=C(O)c1cccc(NC(=S)NCc2ccccc2)c1 | > 43 |
| CCc1cccc(C)c1NC(=S)N(CCOC)C(C)c1ccco1 (stereo not given) | 25.8 (≈ 74.5 µM) |
| COCCNC(=S)N(CCc1c(C)[nH]c2ccc(C)cc12)Cc1ccco1 | 15.2 (≈ 39.4 µM) |
| CC(=O)c1ccc(S(=O)(=O)N2CCNCC2)cc1.Cl | 45.5 |
| O=C1CCNc2c(Cl)cccc21 | 20.9 (≈ 115 µM) |
| CCCc1cc(C(=O)NC(C)C2CCCO2)cs1 (stereo not given) | > 40.1 |
| CCCCN(C)C1CCN(C(=S)Nc2ccc(OC)cc2)CC1 | > 50.3 |
| CCCN(CC(=O)Nc1ccccc1OC)C(=O)c1ccc(=O)[nH]c1 | > 51.5 |
| CN(C)CCCCOc1ccccc1F.O=C(O)C(=O)O | 17.2 |
